In patent US10800754B2, “Heterocyclic amide compound” (TAKEDA PHARMACEUTICAL COMPANY LIMITED, priority 2016, dated 2020):

How the values were obtained:
[1] = target: T1, human PRS protein (Homo sapiens, UniProt P07814); assay: PRS inhibitory activity (ATP/[32P]pyrophosphate exchange enzyme reaction); assay type: biochemical; conditions: 300 nM test compound; recombinant human PRS (EPRS 998-1512); read-out: inhibitory rate (%) of PRS
T1 construct: to construct His-Avi-hEPRS (998-1512) expression plasmid; His tag (N); Avi tag (N); TEV cleavage site (ENLYFQ/GS, encoded by forward primer hEPRS-TEV-NheF) (N); made in house; host or cells: E. coli BL21(DE3)
T1 sequence (P07814 998-1512): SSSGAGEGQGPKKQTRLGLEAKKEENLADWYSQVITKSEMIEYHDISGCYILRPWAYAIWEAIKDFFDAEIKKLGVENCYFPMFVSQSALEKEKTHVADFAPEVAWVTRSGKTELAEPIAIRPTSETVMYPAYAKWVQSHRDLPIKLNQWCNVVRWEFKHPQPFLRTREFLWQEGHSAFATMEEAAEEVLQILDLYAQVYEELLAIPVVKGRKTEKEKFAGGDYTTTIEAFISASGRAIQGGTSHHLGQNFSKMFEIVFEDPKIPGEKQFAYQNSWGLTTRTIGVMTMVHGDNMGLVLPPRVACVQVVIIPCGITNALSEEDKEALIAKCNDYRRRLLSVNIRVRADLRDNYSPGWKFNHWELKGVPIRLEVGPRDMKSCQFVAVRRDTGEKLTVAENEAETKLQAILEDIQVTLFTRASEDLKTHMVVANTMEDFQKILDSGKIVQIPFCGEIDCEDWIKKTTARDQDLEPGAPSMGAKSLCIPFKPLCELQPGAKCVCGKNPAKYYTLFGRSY
Method in brief: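 His-Avi-tagged human EPRS catalytic domain (998-1512), E. coli-expressed, was preincubated 60 min with compound (enzyme added as 40 nM solution) in Tris pH 7.5, KCl, DTT, Tween 20 and MgCl2. The substrate solution contained 300 μM ATP, 160 μM L-proline, and 400 μM pyrophosphate with [32P]pyrophosphate; reaction ran 30 min at room temperature. Charcoal-captured label was counted, with enzyme-free wells taken as 100% inhibition.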

[2] = system: human ovarian cancer cell A2780; assay: proliferation inhibitory activity against A2780 cells (CellTiter-Glo); assay type: cell-based; conditions: A2780, 72 h, 1 μM test compound, 3 days of culture, read-out: proliferation inhibitory rate (%) of A2780 cells
Method: The proliferation inhibitory activity of the compound of the present invention against human ovarian cancer cell A2780 was evaluated by the following method.
Human ovarian cancer cells A2780 were seeded in a 384 well culture plate at 1000 cells in 30 μL of medium per well by using RPMI-1640 medium (Wako Pure Chemical Industries, Ltd.) containing 10% fetal bovine serum and penicillin/streptomycin. The next day, 10 μL of RPMI-1640 medium containing the test compound was added to the cells. After 3 days of culture, 20 μL of CellTiter-Glo Luminescent Cell Viability Assay solution (Promega, Fitchburg, Wis., US) was added. The luminescence signal was measured using EnVision (PerkinElmer, Waltham, Mass., US) and the inhibitory rate (%) of the test compound was calculated with a well free of seeding of cell as 100% inhibition.

Q: Which results are given for `N#C[C@@]1(C2CC2)CCN(c2ccnc(NC(=O)Cc3cccc(-c4cnn(CC(F)F)c4)c3)c2)C1=O` [Example 38, N-(4-((3S)-3-cyano-3-cyclopropyl-2-oxopyrrolidin-1-yl)pyridin-2-yl)-2-(3-(1-(2,2-difluoroethyl)-1H-pyrazol-4-yl)phenyl)acetamide]?
A: inhibition at 0.3 µM [1]: 100%; inhibition at 1 µM [2]: 88%

Q: For `Cn1cc(-c2cccc(CC(=O)Nc3cc(N4CC[C@@](C#N)(C5CC5)C4=O)ccn3)c2)ccc1=O` [Example 41, N-(4-((3S)-3-cyano-3-cyclopropyl-2-oxopyrrolidin-1-yl)pyridin-2-yl)-2-(3-(1-methyl-6-oxo-1,6-dihydropyridin-3-yl)phenyl)acetamide], which inhibition at 0.3 µM [1] is on record?
A: Its inhibition at 0.3 µM is 101%.

Q: And the inhibition at 1 µM [2]?
A: Its inhibition at 1 µM is 72%.

Q: With `N#C[C@@]1(C2CC2)CCN(c2ccnc(NC(=O)Cc3cccc(-c4cnn(C5CC5)c4)c3)c2)C1=O` [Example 42, N-(4-((3S)-3-cyano-3-cyclopropyl-2-oxopyrrolidin-1-yl)pyridin-2-yl)-2-(3-(1-cyclopropyl-1H-pyrazol-4-yl)phenyl)acetamide] as the compound, how does the inhibition at 0.3 µM [1] read?
A: Its inhibition at 0.3 µM is 100%.

Q: And the inhibition at 1 µM [2]?
A: Its inhibition at 1 µM is 84%.

Q: How did the inhibition at 0.3 µM [1] turn out when `N#C[C@@]1(C2CC2)CCN(c2ccnc(NC(=O)Cc3cccc(-c4cnn(C(F)F)c4)c3)c2)C1=O` [Example 44, N-(4-((3S)-3-cyano-3-cyclopropyl-2-oxopyrrolidin-1-yl)pyridin-2-yl)-2-(3-(1-(difluoromethyl)-1H-pyrazol-4-yl)phenyl)acetamide] was run?
A: The inhibition at 0.3 µM was 100%.

Q: And the inhibition at 1 µM [2]?
A: The inhibition at 1 µM was 86%.

Q: What does the source list for `Cc1ncc(-c2cccc(CC(=O)Nc3cc(N4CC[C@@](C#N)(C5CC5)C4=O)ccn3)c2)s1` [Example 45, N-(4-((3S)-3-cyano-3-cyclopropyl-2-oxopyrrolidin-1-yl)pyridin-2-yl)-2-(3-(2-methyl-1,3-thiazol-5-yl)phenyl)acetamide]?
A: inhibition at 0.3 µM [1]: 97%; inhibition at 1 µM [2]: 76%

Q: Which inhibition at 0.3 µM [1] does the source give for `Cn1cc(-c2cccc(CC(=O)Nc3cc(N4CC[C@@](C#N)(C5CC5)C4=O)ccn3)c2)nn1` [Example 47, N-(4-((3S)-3-cyano-3-cyclopropyl-2-oxopyrrolidin-1-yl)pyridin-2-yl)-2-(3-(1-methyl-1H-1,2,3-triazol-4-yl)phenyl)acetamide] here?
A: The inhibition at 0.3 µM was 99%.

Q: And the inhibition at 1 µM [2]?
A: The inhibition at 1 µM was 66%.

Q: What does the source list for `Cc1cc(-c2cccc(CC(=O)Nc3cc(N4CC[C@@](C#N)(C5CC5)C4=O)ccn3)c2)sn1` [Example 48, N-(4-((3S)-3-cyano-3-cyclopropyl-2-oxopyrrolidin-1-yl)pyridin-2-yl)-2-(3-(3-methyl-1,2-thiazol-5-yl)phenyl)acetamide]?
A: inhibition at 0.3 µM [1]: 100%; inhibition at 1 µM [2]: 61%

Q: Which inhibition at 0.3 µM [1] does the source give for `N#C[C@@]1(C2CC2)CCN(c2ccnc(NC(=O)Cc3cccc(-c4cnsc4)c3)c2)C1=O` [Example 50, N-(4-((3S)-3-cyano-3-cyclopropyl-2-oxopyrrolidin-1-yl)pyridin-2-yl)-2-(3-(1,2-thiazol-4-yl)phenyl)acetamide] here?
A: Its inhibition at 0.3 µM is 99%.

Q: And the inhibition at 1 µM [2]?
A: Its inhibition at 1 µM is 78%.

Q: Which inhibition at 0.3 µM [1] does the source give for `Cn1ccc(-c2cccc(CC(=O)Nc3cc(N4CC[C@@](C#N)(C5CC5)C4=O)ccn3)c2)cc1=O` [Example 51, N-(4-((3S)-3-cyano-3-cyclopropyl-2-oxopyrrolidin-1-yl)pyridin-2-yl)-2-(3-(1-methyl-2-oxo-1,2-dihydropyridin-4-yl)phenyl)acetamide] here?
A: Its inhibition at 0.3 µM is 99%.

Q: And the inhibition at 1 µM [2]?
A: Its inhibition at 1 µM is 52%.

Q: What does the source list for `Cc1cc(N2CC[C@@](C#N)(C3CC3)C2=O)cc(NC(=O)Cc2cc(F)cc(-c3cnn(C)c3)c2)n1` [Example 52, N-(4-((3S)-3-cyano-3-cyclopropyl-2-oxopyrrolidin-1-yl)-6-methylpyridin-2-yl)-2-(3-fluoro-5-(1-methyl-1H-pyrazol-4-yl)phenyl)acetamide]?
A: inhibition at 0.3 µM [1]: 99%; inhibition at 1 µM [2]: 97%

Q: What does the source list for `Cn1cc(-c2ccc(F)c(CC(=O)Nc3cc(N4CC[C@@](C#N)(C5CC5)C4=O)ccn3)c2)cn1` [Example 53, N-(4-((3S)-3-cyano-3-cyclopropyl-2-oxopyrrolidin-1-yl)pyridin-2-yl)-2-(2-fluoro-5-(1-methyl-1H-pyrazol-4-yl)phenyl)acetamide]?
A: inhibition at 0.3 µM [1]: 100%; inhibition at 1 µM [2]: 82%

Q: `CC(C)(C)OC(=O)n1cc(-c2cccc(CC(=O)Nc3cc(N4CC[C@@](C#N)(C5CC5)C4=O)ccn3)c2)cn1` [Example 55, tert-butyl 4-(3-(2-((4-((3S)-3-cyano-3-cyclopropyl-2-oxopyrrolidin-1-yl)pyridin-2-yl)amino)-2-oxoethyl)phenyl)-1H-pyrazole-1-carboxylate] was tested. Which inhibition at 0.3 µM [1] did it give?
A: The inhibition at 0.3 µM was 99%.

Q: What about the inhibition at 1 µM [2] of the same compound?
A: The inhibition at 1 µM was 67%.

Q: `N#C[C@@]1(C2CC2)CCN(c2ccnc(NC(=O)Cc3cccc(-c4cn[nH]c4)c3)c2)C1=O` [Example 56, N-(4-((3S)-3-cyano-3-cyclopropyl-2-oxopyrrolidin-1-yl)pyridin-2-yl)-2-(3-(1H-pyrazol-4-yl)phenyl)acetamide] was tested. Which inhibition at 0.3 µM [1] did it give?
A: The inhibition at 0.3 µM was 98%.

Q: And the inhibition at 1 µM [2]?
A: Its inhibition at 1 µM is 64%.

Q: How did the inhibition at 0.3 µM [1] turn out when `Cc1cc(N2CC[C@@](C#N)(C3CC3)C2=O)cc(NC(=O)Cc2cc(F)cc(-c3cn(C)nn3)c2)n1` [Example 57, N-(4-((3S)-3-cyano-3-cyclopropyl-2-oxopyrrolidin-1-yl)-6-methylpyridin-2-yl)-2-(3-fluoro-5-(1-methyl-1H-1,2,3-triazol-4-yl)phenyl)acetamide] was run?
A: Its inhibition at 0.3 µM is 99%.

Q: And the inhibition at 1 µM [2]?
A: The inhibition at 1 µM was 94%.

Q: For `N#C[C@@]1(C2CC2)CCN(c2ccnc(NC(=O)Cc3cccc(-c4cnn(CC(F)(F)F)c4)c3)c2)C1=O` [Example 58, N-(4-((3S)-3-cyano-3-cyclopropyl-2-oxopyrrolidin-1-yl)pyridin-2-yl)-2-(3-(1-(2,2,2-trifluoroethyl)-1H-pyrazol-4-yl)phenyl)acetamide], which inhibition at 0.3 µM [1] is on record?
A: The inhibition at 0.3 µM was 99%.

Q: And the inhibition at 1 µM [2]?
A: Its inhibition at 1 µM is 75%.

Q: How did the inhibition at 0.3 µM [1] turn out when `Cc1cc(N2CC[C@@](C#N)(C3CC3)C2=O)cc(NC(=O)Cc2cc(-c3cnn(C)c3)cc(C(F)(F)F)c2)n1` [Example 59, N-(4-((3S)-3-cyano-3-cyclopropyl-2-oxopyrrolidin-1-yl)-6-methylpyridin-2-yl)-2-(3-(1-methyl-1H-pyrazol-4-yl)-5-(trifluoromethyl)-phenyl)acetamide] was run?
A: The inhibition at 0.3 µM was 93%.

Q: What about the inhibition at 1 µM [2] of the same compound?
A: The inhibition at 1 µM was 51%.

Q: For `Cc1cc(N2CC[C@@](C#N)(C3CC3)C2=O)cc(NC(=O)Cc2cc(F)cc(-c3ccc(=O)n(C)c3)c2)n1` [Example 60, N-(4-((3S)-3-cyano-3-cyclopropyl-2-oxopyrrolidin-1-yl)-6-methylpyridin-2-yl)-2-(3-fluoro-5-(1-methyl-6-oxo-1,6-dihydropyridin-3-yl)phenyl)acetamide], which inhibition at 0.3 µM [1] is on record?
A: The inhibition at 0.3 µM was 99%.

Q: What about the inhibition at 1 µM [2] of the same compound?
A: Its inhibition at 1 µM is 97%.

Q: `Cn1cc(-c2cccc(CC(=O)Nc3cc(N4CC[C@@](C#N)(C5CC5)C4=O)cc(F)n3)c2)cn1` [Example 63, N-(4-((3S)-3-cyano-3-cyclopropyl-2-oxopyrrolidin-1-yl)-6-fluoropyridin-2-yl)-2-(3-(1-methyl-1H-pyrazol-4-yl)phenyl)acetamide] was tested. Which inhibition at 0.3 µM [1] did it give?
A: The inhibition at 0.3 µM was 99%.

Q: What about the inhibition at 1 µM [2] of the same compound?
A: The inhibition at 1 µM was 88%.

Q: What does the source list for `N#C[C@@]1(C2CC2)CCN(c2ccnc(NC(=O)Cc3cccc(-c4cnn(CC5CC5)c4)c3)c2)C1=O` [Example 64, N-(4-((3S)-3-cyano-3-cyclopropyl-2-oxopyrrolidin-1-yl)pyridin-2-yl)-2-(3-(1-(cyclopropylmethyl)-1H-pyrazol-4-yl)phenyl)acetamide]?
A: inhibition at 0.3 µM [1]: 99%; inhibition at 1 µM [2]: 79%

Q: `Cn1cc(-c2cccc(CC(=O)Nc3cc(N4CC[C@@](C#N)(C5CC5)C4=O)cc(C(F)F)n3)c2)cn1` [Example 65, N-(4-((3S)-3-cyano-3-cyclopropyl-2-oxopyrrolidin-1-yl)-6-(difluoromethyl)pyridin-2-yl)-2-(3-(1-methyl-1H-pyrazol-4-yl)phenyl)acetamide] was tested. Which inhibition at 0.3 µM [1] did it give?
A: Its inhibition at 0.3 µM is 95%.

Q: And the inhibition at 1 µM [2]?
A: The inhibition at 1 µM was 75%.

Q: With `N#C[C@@]1(C2CC2)CCN(c2ccnc(NC(=O)Cc3cccc(-c4cnn(C5CCCC5)c4)c3)c2)C1=O` [Example 66, N-(4-((3S)-3-cyano-3-cyclopropyl-2-oxopyrrolidin-1-yl)pyridin-2-yl)-2-(3-(1-cyclopentyl-1H-pyrazol-4-yl)phenyl)acetamide] as the compound, how does the inhibition at 0.3 µM [1] read?
A: Its inhibition at 0.3 µM is 99%.

Q: And the inhibition at 1 µM [2]?
A: The inhibition at 1 µM was 80%.
